{
  "source": "ChEMBL document CHEMBL4382204",
  "about": "(Eur J Med Chem, 2018)",
  "key": {"[1]": {"target": "Receptor-type tyrosine-protein kinase FLT3 (Homo sapiens) (UniProt P36888)", "sequence (P36888 whole entry, the tested form may be a part)": "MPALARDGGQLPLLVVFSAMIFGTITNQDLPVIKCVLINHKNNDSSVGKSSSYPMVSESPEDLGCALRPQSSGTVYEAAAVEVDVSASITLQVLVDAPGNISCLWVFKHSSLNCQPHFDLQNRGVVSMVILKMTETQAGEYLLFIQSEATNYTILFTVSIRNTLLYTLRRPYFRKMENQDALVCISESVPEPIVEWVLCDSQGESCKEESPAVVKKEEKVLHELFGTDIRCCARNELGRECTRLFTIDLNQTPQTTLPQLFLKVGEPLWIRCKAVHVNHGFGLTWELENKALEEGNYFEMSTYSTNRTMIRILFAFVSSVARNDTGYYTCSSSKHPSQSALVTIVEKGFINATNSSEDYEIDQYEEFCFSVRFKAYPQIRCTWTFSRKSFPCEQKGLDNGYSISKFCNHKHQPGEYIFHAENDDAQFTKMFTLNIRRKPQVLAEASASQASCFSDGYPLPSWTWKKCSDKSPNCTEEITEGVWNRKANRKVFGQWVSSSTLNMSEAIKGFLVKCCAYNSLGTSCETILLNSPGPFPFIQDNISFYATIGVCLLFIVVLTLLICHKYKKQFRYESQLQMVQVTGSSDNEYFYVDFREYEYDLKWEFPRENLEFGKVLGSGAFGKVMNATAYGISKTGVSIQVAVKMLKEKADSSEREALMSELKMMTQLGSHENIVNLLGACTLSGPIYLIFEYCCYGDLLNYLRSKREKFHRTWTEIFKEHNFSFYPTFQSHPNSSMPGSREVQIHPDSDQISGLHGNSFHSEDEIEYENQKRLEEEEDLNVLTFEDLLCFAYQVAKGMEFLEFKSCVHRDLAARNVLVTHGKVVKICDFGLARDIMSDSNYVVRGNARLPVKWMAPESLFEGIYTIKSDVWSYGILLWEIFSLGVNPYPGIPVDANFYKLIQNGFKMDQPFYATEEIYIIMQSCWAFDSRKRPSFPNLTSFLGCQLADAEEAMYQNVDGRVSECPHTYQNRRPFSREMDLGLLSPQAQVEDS", "experiment": "Inhibition of wild type C-terminal FLAG-tagged human TEL fused FLT3 (unknown origin) transfected in mouse BAF3 cells assessed as growth inhibition after 72 hrs by CCK8 assay", "format": "cell-based"}, "[2]": {"test_system": "K562", "experiment": "Cell cycle arrest in human K562 cells assessed as accumulation at G0/G1 phase up to 0.3 uM after 24 hrs by propidium iodide/RNase staining based flow cytometric analysis", "format": "functional"}, "[3]": {"test_system": "BaF3", "experiment": "Antitumor activity against mouse BAF3 cells expressing BCR/ABL T315I mutant allografted in nu/nu mouse assessed as tumor growth inhibition at 25 to 50 mg/kg, po administered via gavage for 14 days by Ki-67 staining based assay", "format": "functional, organism-based"}, "[4]": {"experiment": "Tmax in mouse at 1 mg/kg, iv by LC-MS/MS analysis", "format": "ADME, organism-based", "settings": "in vivo"}, "[5]": {"test_system": "Bcr/Abl fusion protein (Homo sapiens), P00519+P11274 [Q252H]", "settings": "BaF3"}, "[6]": {"experiment": "Cmax in Sprague-Dawley rat at 1 mg/kg, iv by LC-MS/MS analysis", "format": "ADME, organism-based", "set-up": "dose 1 mg/kg, route intravenous", "settings": "in vivo"}, "[7]": {"experiment": "Tmax in mouse at 10 mg/kg, po by LC-MS/MS analysis", "format": "ADME, organism-based", "settings": "in vivo"}, "[8]": {"test_system": "Tyrosine-protein kinase ABL1 (Homo sapiens), P00519 [T315I]", "settings": "BaF3"}, "[9]": {"test_system": "Bcr/Abl fusion protein (Homo sapiens), P00519+P11274 [V299L]", "settings": "BaF3"}, "[10]": {"experiment": "Half life in mouse at 10 mg/kg, po by LC-MS/MS analysis", "format": "ADME, organism-based", "settings": "in vivo"}, "[11]": {"target": "Epithelial discoidin domain-containing receptor 1 (Homo sapiens) (UniProt Q08345)", "sequence (Q08345 whole entry, the tested form may be a part)": "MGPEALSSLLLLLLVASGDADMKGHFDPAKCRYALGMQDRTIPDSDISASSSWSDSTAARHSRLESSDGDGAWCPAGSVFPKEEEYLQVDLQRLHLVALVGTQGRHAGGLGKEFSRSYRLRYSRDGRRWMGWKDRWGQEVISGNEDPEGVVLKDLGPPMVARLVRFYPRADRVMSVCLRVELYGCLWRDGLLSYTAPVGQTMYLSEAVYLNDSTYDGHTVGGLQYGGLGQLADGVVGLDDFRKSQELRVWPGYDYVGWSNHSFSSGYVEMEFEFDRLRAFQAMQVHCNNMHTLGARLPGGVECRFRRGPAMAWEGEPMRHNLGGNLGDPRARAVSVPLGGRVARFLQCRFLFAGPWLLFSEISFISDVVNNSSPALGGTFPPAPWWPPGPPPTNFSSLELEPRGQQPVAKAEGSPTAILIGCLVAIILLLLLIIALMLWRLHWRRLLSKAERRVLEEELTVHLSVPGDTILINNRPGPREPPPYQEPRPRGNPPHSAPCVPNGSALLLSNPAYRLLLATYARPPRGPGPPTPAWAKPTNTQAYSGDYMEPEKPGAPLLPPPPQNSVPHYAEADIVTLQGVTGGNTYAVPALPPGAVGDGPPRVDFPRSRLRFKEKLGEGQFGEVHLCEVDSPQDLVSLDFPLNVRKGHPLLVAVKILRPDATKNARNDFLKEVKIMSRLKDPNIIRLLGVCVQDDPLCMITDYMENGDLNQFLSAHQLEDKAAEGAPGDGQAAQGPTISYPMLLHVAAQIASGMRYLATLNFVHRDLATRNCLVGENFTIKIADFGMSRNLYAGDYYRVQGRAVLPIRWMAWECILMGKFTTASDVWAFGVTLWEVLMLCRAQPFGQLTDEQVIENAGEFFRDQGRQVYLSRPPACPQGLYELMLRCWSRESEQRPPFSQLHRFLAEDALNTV", "experiment": "Inhibition of wild type C-terminal FLAG-tagged human TEL fused DDR1 (unknown origin) transfected in mouse BAF3 cells assessed as growth inhibition after 72 hrs by CCK8 assay", "format": "cell-based"}, "[12]": {"test_system": "OCI-AML2", "experiment": "Antiproliferative activity in human OCI-AML2 cells after 72 hrs by CCK8 assay", "format": "functional", "settings": "OCI-AML2, 72 h"}, "[13]": {"test_system": "K562", "experiment": "Induction of apoptosis in human K562 cells assessed as cleaved caspase-3 level up to 0.3 uM after 24 hrs by immunoblotting analysis", "format": "functional, cell-based"}, "[14]": {"experiment": "Apparent clearance during terminal phase in Sprague-Dawley rat at 10 mg/kg, po by LC-MS/MS analysis", "format": "ADME, organism-based", "settings": "in vivo, read-out: CLz/F (converted)"}, "[15]": {"target": "T1, Bcr/Abl fusion protein (Homo sapiens) (UniProt P00519+P11274)", "experiment": "Inhibition of BCR/ABL in human KU812 cells assessed as inhibition of CrkL phosphorylation up to 0.3 uM after 1 hr by immunoblotting analysis", "format": "cell-based"}, "[16]": {"experiment": "AUC (0 to infinity) in mouse at 10 mg/kg, po by LC-MS/MS analysis", "format": "ADME, organism-based", "set-up": "dose 10 mg/kg, route oral, time infinity", "settings": "in vivo"}, "[17]": {"target": "T1, Bcr/Abl fusion protein (Homo sapiens)", "experiment": "Inhibition of BCR/ABL in human K562 cells assessed as inhibition of ErK phosphorylation up to 0.3 uM after 1 hr by immunoblotting analysis", "format": "cell-based"}, "[18]": {"experiment": "Oral bioavailability in mouse at 10 mg/kg by LC-MS/MS analysis", "format": "ADME, organism-based", "settings": "in vivo"}, "[19]": {"test_system": "KU812 cell line", "experiment": "Induction of apoptosis in human KU812 cells assessed as cleaved PARP level up to 0.3 uM after 24 hrs by immunoblotting analysis", "format": "functional, cell-based"}, "[20]": {"experiment": "AUC (0 to t) in mouse at 1 mg/kg, iv by LC-MS/MS analysis", "format": "ADME, organism-based", "settings": "in vivo"}, "[21]": {"test_system": "BaF3", "experiment": "Antitumor activity against mouse BAF3 cells expressing BCR/ABL T315I mutant allografted in nu/nu mouse assessed as tumor growth inhibition at 25 to 50 mg/kg, po administered via gavage for 14 days by TUNEL staining based assay", "format": "functional, organism-based"}, "[22]": {"target": "Ephrin type-A receptor 2 (Homo sapiens) (UniProt P29317)", "sequence (P29317 whole entry, the tested form may be a part)": "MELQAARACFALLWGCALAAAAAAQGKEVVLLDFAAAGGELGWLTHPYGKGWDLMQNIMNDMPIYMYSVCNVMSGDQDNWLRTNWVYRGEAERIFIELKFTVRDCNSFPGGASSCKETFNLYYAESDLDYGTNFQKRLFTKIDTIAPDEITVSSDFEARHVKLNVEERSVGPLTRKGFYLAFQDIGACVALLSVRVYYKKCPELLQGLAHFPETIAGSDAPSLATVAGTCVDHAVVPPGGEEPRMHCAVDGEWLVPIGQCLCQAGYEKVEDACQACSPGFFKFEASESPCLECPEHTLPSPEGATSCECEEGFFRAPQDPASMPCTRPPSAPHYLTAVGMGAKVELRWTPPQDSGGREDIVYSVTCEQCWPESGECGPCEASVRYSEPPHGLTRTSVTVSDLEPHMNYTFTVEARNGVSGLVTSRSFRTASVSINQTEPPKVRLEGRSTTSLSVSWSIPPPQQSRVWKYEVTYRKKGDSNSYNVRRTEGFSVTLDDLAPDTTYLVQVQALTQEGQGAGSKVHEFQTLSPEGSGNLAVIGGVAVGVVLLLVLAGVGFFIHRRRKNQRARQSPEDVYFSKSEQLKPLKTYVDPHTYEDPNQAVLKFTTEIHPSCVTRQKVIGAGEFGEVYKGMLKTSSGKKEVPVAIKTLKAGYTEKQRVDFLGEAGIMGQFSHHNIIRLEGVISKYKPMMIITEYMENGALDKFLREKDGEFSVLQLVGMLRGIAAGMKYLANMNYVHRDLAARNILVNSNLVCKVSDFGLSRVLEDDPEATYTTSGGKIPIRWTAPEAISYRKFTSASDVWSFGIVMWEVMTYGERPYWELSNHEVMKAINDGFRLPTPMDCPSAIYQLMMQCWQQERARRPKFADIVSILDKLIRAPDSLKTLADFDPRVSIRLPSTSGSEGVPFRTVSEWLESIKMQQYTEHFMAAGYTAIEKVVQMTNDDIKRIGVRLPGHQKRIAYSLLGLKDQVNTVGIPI", "experiment": "Inhibition of wild type C-terminal FLAG-tagged human TEL fused EPHA2 (unknown origin) transfected in mouse BAF3 cells assessed as growth inhibition after 72 hrs by CCK8 assay", "format": "cell-based"}, "[23]": {"target": "T2, Tyrosine-protein kinase ABL1 (Homo sapiens, UniProt P00519)", "experiment": "Inhibition of inactive wild type His-tagged ABL (229 to 500 residues) (unknown origin) expressed in baculovirus infected sf9 cells assessed as reduction in autophosphorylation preincubated for 60 mins followed by ATP addition measured after 8 hrs by ADP-Glo assay"}, "[24]": {"target": "Fibroblast growth factor receptor 4 (Homo sapiens) (UniProt P22455)", "sequence (P22455 22-802 limits assumed)": "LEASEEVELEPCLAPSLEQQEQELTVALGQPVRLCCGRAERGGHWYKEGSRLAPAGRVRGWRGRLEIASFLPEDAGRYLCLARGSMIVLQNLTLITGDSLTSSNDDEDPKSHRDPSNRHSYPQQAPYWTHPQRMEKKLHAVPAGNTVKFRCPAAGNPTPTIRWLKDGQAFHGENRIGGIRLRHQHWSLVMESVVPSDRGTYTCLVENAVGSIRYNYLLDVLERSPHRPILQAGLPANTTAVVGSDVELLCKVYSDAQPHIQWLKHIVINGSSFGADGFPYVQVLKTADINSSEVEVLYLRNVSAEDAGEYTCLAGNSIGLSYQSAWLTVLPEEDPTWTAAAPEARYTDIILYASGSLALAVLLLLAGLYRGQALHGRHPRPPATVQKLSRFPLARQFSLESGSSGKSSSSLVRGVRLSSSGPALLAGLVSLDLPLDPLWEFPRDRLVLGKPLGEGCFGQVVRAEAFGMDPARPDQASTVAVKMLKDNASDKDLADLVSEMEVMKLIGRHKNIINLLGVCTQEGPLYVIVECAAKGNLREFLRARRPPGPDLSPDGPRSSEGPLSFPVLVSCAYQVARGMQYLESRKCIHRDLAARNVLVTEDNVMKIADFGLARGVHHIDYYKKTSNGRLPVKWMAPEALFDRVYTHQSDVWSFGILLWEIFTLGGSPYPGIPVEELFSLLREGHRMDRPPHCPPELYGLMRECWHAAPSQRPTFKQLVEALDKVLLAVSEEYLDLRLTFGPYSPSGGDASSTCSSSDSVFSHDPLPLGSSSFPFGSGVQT", "experiment": "Inhibition of wild type C-terminal FLAG-tagged human TEL fused FGFR4 (unknown origin) transfected in mouse BAF3 cells assessed as growth inhibition after 72 hrs by CCK8 assay", "format": "cell-based"}, "[25]": {"target": "Fibroblast growth factor receptor 3 (Homo sapiens) (UniProt P22607)", "sequence (P22607 23-806 limits assumed)": "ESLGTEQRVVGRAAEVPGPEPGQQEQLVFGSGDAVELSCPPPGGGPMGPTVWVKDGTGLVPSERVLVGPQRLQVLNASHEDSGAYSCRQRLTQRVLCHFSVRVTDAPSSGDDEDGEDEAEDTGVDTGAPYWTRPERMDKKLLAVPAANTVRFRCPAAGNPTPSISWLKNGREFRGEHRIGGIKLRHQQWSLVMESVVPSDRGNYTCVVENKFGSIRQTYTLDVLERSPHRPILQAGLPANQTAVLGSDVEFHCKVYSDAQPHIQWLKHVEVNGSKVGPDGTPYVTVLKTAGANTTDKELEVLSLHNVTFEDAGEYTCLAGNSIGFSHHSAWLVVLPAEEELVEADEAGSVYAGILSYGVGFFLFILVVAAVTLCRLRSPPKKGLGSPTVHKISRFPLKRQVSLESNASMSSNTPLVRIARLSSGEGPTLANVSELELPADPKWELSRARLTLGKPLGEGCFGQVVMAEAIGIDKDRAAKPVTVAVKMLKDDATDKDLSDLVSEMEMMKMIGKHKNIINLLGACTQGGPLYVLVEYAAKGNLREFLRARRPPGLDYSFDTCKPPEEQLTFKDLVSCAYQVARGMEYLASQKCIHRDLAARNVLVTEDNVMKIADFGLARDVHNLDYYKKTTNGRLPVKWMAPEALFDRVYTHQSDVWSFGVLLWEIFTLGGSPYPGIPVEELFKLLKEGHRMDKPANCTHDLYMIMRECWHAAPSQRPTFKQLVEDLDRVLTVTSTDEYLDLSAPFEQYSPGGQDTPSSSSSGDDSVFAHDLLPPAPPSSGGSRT", "experiment": "Inhibition of wild type C-terminal FLAG-tagged human TEL fused FGFR3 (unknown origin) transfected in mouse BAF3 cells assessed as growth inhibition after 72 hrs by CCK8 assay", "format": "cell-based"}, "[26]": {"test_system": "Bcr/Abl fusion protein (Homo sapiens), P00519+P11274 [T315I]", "settings": "BaF3"}, "[27]": {"test_system": "KU812 cell line", "experiment": "Antiproliferative activity in human KU812 cells after 72 hrs by CCK8 assay", "format": "functional", "settings": "KU812, 72 h"}, "[28]": {"test_system": "Bcr/Abl fusion protein (Homo sapiens), P00519+P11274 [H396P]", "settings": "BaF3"}, "[29]": {"test_system": "Bcr/Abl fusion protein (Homo sapiens), P00519+P11274 [F317I]", "settings": "BaF3"}, "[30]": {"experiment": "Cmax in Sprague-Dawley rat at 10 mg/kg, po by LC-MS/MS analysis", "format": "ADME, organism-based", "set-up": "dose 10 mg/kg, route oral", "settings": "in vivo"}, "[31]": {"experiment": "Cmax in mouse at 1 mg/kg, iv by LC-MS/MS analysis", "format": "ADME, organism-based", "set-up": "dose 1 mg/kg, route intravenous", "settings": "in vivo"}, "[32]": {"experiment": "Half life in Sprague-Dawley rat at 1 mg/kg, iv by LC-MS/MS analysis", "format": "ADME, organism-based", "settings": "in vivo"}, "[33]": {"experiment": "Apparent clearance during terminal phase in Sprague-Dawley rat at 1 mg/kg, iv by LC-MS/MS analysis", "format": "ADME, organism-based", "settings": "in vivo"}, "[34]": {"test_system": "Bcr/Abl fusion protein (Homo sapiens), P00519+P11274 [F317L]", "settings": "BaF3"}, "[35]": {"test_system": "MEG-01", "experiment": "Cell cycle arrest in human MEG01 cells assessed as accumulation at G0/G1 phase up to 0.3 uM after 24 hrs by propidium iodide/RNase staining based flow cytometric analysis", "format": "functional"}, "[36]": {"target": "Bcr/Abl fusion protein (Homo sapiens, UniProt P00519)", "experiment": "(§1) Inhibition of BCR/ABL in human K562 cells assessed as inhibition of BCR/ABL autophosphorylation at Y245 site after 1 hr by immunoblotting analysis", "format": "cell-based"}, "[37]": {"target": "T1, Bcr/Abl fusion protein (Homo sapiens)", "experiment": "as §1", "format": "cell-based"}, "[38]": {"target": "T2, Tyrosine-protein kinase ABL1", "experiment": "Inhibition of active wild type His-tagged ABL (229 to 500 residues) (unknown origin) expressed in baculovirus infected sf9 cells using ABLtide as substrate after 1 hr by ADP-Glo assay"}, "[39]": {"experiment": "AUC (0 to t) in mouse at 10 mg/kg, po by LC-MS/MS analysis", "format": "ADME, organism-based", "settings": "in vivo"}},
  "note": "Calls of active or inactive are those of the source. The rule behind the calls is not given here.",
  "data": [
    {"smiles": "CN1CCN(Cc2ccc(NC(=O)CCSc3ccc4c(/C=C/c5ccccn5)n[nH]c4c3)cc2C(F)(F)F)CC1", "values": [
      {"measurement": "GI50", "setting": "[1]", "value": 4, "unit": "nM"},
      {"measurement": "Activity", "setting": "[2]", "value": "Active"},
      {"measurement": "TGI", "setting": "[3]", "value": "Active"},
      {"measurement": "Tmax", "setting": "[4]", "value": 1.8, "unit": "min"},
      {"measurement": "GI50", "setting": "[5]", "value": 15, "unit": "nM"},
      {"measurement": "Cmax", "setting": "[6]", "value": 1270, "unit": "ng/mL"},
      {"measurement": "Tmax", "setting": "[7]", "value": 1, "unit": "h"},
      {"measurement": "GI50", "setting": "[8]", "value": 3, "unit": "nM"},
      {"measurement": "GI50", "setting": "[9]", "value": 103, "unit": "nM"},
      {"measurement": "half-life", "setting": "[10]", "value": 2, "unit": "h"},
      {"measurement": "GI50", "setting": "[11]", "value": 1360, "unit": "nM"},
      {"measurement": "GI50", "setting": "[12]", "value": 1420, "unit": "nM"},
      {"measurement": "Activity", "setting": "[13]", "value": "Active"},
      {"measurement": "CL/F", "setting": "[14]", "value": 633, "unit": "mL/min/kg"},
      {"measurement": "inhibition", "setting": "[15]", "value": "Active"},
      {"measurement": "AUC(0-inf)", "setting": "[16]", "value": 230, "unit": "ng·h/mL"},
      {"measurement": "inhibition", "setting": "[17]", "value": "Active"},
      {"measurement": "bioavailability", "setting": "[18]", "value": 14.4, "unit": "%"},
      {"measurement": "Activity", "setting": "[19]", "value": "Active"},
      {"measurement": "AUC(0-t)", "setting": "[20]", "value": 148, "unit": "ng·h/mL"},
      {"measurement": "TGI", "setting": "[21]", "value": "Active"},
      {"measurement": "GI50", "setting": "[22]", "value": 120, "unit": "nM"},
      {"measurement": "IC50", "setting": "[23]", "value": 2, "unit": "nM"},
      {"measurement": "GI50", "setting": "[24]", "value": 75, "unit": "nM"},
      {"measurement": "GI50", "setting": "[25]", "value": 73, "unit": "nM"},
      {"measurement": "GI50", "setting": "[26]", "value": 6, "unit": "nM"},
      {"measurement": "GI50", "setting": "[27]", "value": 3, "unit": "nM"},
      {"measurement": "GI50", "setting": "[28]", "value": 35, "unit": "nM"},
      {"measurement": "GI50", "setting": "[29]", "value": 25, "unit": "nM"},
      {"measurement": "Cmax", "setting": "[30]", "value": 48.6, "unit": "ng/mL"},
      {"measurement": "Cmax", "setting": "[31]", "value": 525, "unit": "ng/mL"},
      {"measurement": "half-life", "setting": "[32]", "value": 2.3, "unit": "h"},
      {"measurement": "CLz/F", "setting": "[33]", "value": 85, "unit": "mL/min/kg"},
      {"measurement": "GI50", "setting": "[34]", "value": 18, "unit": "nM"},
      {"measurement": "Activity", "setting": "[35]", "value": "Active"},
      {"measurement": "EC50", "setting": "[36]", "value": "< 10", "unit": "nM"},
      {"measurement": "inhibition", "setting": "[37]", "value": "Dose-dependent effect"},
      {"measurement": "IC50", "setting": "[38]", "value": 17, "unit": "nM"},
      {"measurement": "AUC(0-t)", "setting": "[39]", "value": 225, "unit": "ng·h/mL"}
    ]}
  ]
}
